According to US7807383B2, “Diagnosing and treating hormone resistant cancers” (Board of Regents, The University of Texas System, priority 2007, dated 2010):

Molecular target: T1, DBC-1/ERα interaction (Homo sapiens, UniProt P03372)
T1 sequence (P03372 1-595): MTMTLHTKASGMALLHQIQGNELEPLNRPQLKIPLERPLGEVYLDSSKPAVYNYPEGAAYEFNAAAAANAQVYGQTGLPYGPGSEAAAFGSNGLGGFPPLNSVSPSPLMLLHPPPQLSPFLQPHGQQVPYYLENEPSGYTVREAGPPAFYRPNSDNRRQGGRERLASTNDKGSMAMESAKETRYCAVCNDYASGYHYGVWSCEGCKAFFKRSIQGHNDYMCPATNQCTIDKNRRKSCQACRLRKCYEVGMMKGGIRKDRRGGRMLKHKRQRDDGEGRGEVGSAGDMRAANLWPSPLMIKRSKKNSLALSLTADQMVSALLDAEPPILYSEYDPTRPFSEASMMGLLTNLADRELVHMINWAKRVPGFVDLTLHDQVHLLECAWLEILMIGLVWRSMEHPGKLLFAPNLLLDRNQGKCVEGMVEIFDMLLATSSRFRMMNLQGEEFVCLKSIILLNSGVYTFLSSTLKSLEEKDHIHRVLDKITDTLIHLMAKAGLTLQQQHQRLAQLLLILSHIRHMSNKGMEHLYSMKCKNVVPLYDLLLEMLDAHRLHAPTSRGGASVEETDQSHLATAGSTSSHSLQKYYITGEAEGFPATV
Details: MCF-7 and BG-1 cells, hormone-free medium; E2 10^−7 M, 4-OHT 10^−6 M, ICI 10^−7 M; one hour
Source text: Results are representative of at least three independent experiments.

SMILES: C[C@]12CC[C@@H]3c4ccc(O)cc4C[C@@H](CCCCCCCCC[S+]([O-])CCCC(F)(F)C(F)(F)F)[C@H]3[C@@H]1CC[C@@H]2O (stereo partly shown) [ICI 182,780]
- effect on DBC-1/ERα interaction (co-immunoprecipitation): disrupted the DBC-1/ERα interaction
